Test results from ChEMBL document CHEMBL1155295, “Benzo[c][2,7]naphthyridines as inhibitors of PDK-1” (Bioorg Med Chem Lett, 2009).

The compounds below were run against T1, 3-phosphoinositide-dependent protein kinase 1 (Homo sapiens, UniProt O15530) (assay: Inhibition of PDPK1 by ELISA assay).
T1 sequence (O15530 whole entry): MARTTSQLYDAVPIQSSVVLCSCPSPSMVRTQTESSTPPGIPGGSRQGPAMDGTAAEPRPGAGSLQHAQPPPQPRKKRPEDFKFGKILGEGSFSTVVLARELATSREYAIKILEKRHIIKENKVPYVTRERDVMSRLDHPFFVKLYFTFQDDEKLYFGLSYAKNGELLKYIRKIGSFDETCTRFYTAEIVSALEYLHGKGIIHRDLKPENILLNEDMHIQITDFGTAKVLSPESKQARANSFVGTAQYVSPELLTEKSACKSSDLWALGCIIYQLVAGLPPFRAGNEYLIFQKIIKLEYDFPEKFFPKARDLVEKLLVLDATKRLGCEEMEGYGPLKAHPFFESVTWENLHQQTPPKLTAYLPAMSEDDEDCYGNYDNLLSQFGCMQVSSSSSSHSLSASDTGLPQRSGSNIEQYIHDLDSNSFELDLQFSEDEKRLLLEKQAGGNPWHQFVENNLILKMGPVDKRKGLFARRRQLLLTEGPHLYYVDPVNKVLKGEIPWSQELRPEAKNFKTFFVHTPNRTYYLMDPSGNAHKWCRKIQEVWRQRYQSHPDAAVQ

| SMILES | IC50 [nM] |
| --- | --- |
| COc1cc2ncc3c(N)nc(-c4ccoc4)cc3c2cc1OC | > 1000 |
| COc1cc2ncc3c(N)nc(-c4cncc(Br)c4)cc3c2cc1OC | 65 |
| COc1cc2ncc3c(N)nc(-c4cncc(N)c4)cc3c2cc1OC | 26 |
| COc1cc2ncc3c(N)nc(-n4ccnc4)cc3c2cc1OC | 100 |
| COc1cc2ncc3c(N)nc(-c4ccc(N)nc4)cc3c2cc1OC | > 1000 |
| COc1cc2c(cc1OCCCN1CCCCC1)ncc1c(N)nc(-c3cccnc3)cc12 | 144 |

Other lines, results leading:

| IC50 [nM] | SMILES |
| --- | --- |
| > 1000 | COc1cc2ncc3c(N)nc(-c4cncc(Nc5ccccc5OCc5ccccc5)c4)cc3c2cc1OC |
| 30 | COc1cc2ncc3c(N)nc(-c4cncc(Nc5ccccc5F)c4)cc3c2cc1OC |
| 35 | COc1cc2ncc3c(N)nc(-c4cccnc4)cc3c2cc1OC |
| > 100 | COc1cc2ncc3c(N)nc(-c4ccccn4)cc3c2cc1OC |
| 146 | COc1cc2c(cc1OCc1ccccc1)ncc1c(N)nc(-c3cccnc3)cc12 |
